Earlier results, collected in patent US20070254941A1, “Subtantially pure ropinirole hydrochloride, polymorphic form of ropinirole and process for their preparation” (Glenmark Pharmaceuticals Limited, priority 2006, published 2007).
Where a name gives a salt, the structure may show the parent alone.

Legend:
D2 dopamine receptor = D2 dopamine receptor (Homo sapiens, UniProt P14416)
D3 dopamine receptor [1] = target: T1, D3 dopamine receptor (Homo sapiens, UniProt P35462)
D3 dopamine receptor [2] = target: T1, D3 dopamine receptor; details: D3 versus D2 or D4

T1 sequence (P35462 whole entry): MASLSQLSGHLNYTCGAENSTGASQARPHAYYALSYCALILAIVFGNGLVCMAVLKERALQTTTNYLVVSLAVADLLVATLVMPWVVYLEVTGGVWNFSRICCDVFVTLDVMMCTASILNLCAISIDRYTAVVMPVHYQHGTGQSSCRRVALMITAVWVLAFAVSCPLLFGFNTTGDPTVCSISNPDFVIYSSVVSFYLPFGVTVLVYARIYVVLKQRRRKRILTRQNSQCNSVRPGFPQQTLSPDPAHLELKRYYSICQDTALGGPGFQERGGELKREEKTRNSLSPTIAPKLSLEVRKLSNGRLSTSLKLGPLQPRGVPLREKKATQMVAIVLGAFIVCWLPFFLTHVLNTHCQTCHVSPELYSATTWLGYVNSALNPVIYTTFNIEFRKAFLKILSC
Chain of D2 dopamine receptor (P14416 whole entry): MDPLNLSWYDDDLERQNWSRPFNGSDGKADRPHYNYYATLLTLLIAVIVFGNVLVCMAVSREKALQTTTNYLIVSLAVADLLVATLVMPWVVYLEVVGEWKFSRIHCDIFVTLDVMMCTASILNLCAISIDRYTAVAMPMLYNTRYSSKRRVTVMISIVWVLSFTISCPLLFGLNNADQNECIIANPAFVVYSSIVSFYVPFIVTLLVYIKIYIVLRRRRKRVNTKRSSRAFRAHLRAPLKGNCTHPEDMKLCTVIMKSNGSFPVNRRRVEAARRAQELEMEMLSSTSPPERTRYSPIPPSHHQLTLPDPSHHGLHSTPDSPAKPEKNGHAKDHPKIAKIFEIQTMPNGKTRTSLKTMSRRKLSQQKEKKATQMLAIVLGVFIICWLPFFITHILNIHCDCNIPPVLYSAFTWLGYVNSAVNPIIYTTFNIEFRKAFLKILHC

In the case of `CCCN(CCC)CCc1cccc2c1CC(=O)N2` [Ropinirole hydrochloride], the “intrinsic activity at D2 dopamine receptor subtype” value (D2 dopamine receptor) is listed as “full intrinsic activity”, the “intrinsic activity at D3 dopamine receptor subtype” value (D3 dopamine receptor [1]) is listed as “full intrinsic activity” and the “affinity for D3 relative to D2 or D4 receptor subtypes” value (D3 dopamine receptor [2]) is listed as “higher affinity to D3 than to D2 or D4”.
